Assay results from publication PMC3983201, “6-Methoxyflavanones as Bitter Taste Receptor Blockers for hTAS2R39” (PLoS ONE, 2014).
Where two headings read alike, the source gives them in different places. One block for each compound: values may come before it.

Legend:
[1] = molecular target: T1, hTAS2R39 (Homo sapiens, UniProt P59534); assay: Calcium assay of hTAS2R39 activation/inhibition in HEK293 T-Rex Flp-In cells; format: cell-based; conditions: for reduction of ECG response on hTAS2R39 (screening for inhibition): simultaneous application of 200 μM ECG and 250 μM flavanone, inhibition when response ratio <1; for EC80 on hTAS2R39: agonist dose-response curve
T1 construct: first 45 amino acids of rat somatostatin receptor type 3 (sst3 membrane-targeting tag) (N); expressed in transfected cells; host or cells: HEK293 T-Rex Flp-In cells stably expressing Gα16-gust44; receptor in pcDNA5/FRT, induced with doxycycline
T1 sequence (P59534 1-338): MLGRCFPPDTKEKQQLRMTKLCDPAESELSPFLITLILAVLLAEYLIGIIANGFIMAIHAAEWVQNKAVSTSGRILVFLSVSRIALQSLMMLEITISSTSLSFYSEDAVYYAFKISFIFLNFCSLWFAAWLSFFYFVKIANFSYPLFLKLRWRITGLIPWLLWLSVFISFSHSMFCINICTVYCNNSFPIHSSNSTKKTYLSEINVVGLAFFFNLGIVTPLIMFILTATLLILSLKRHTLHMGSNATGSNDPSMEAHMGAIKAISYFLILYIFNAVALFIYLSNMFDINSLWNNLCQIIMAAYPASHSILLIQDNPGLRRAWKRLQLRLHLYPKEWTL

[2] = molecular target: T2, hTAS2R14 (Homo sapiens, UniProt Q9NYV8); assay: Calcium assay of hTAS2R14 activation/inhibition in HEK293 T-Rex Flp-In cells; format: cell-based; conditions: for IC50, Simultaneous / Threshold, Simultaneous: simultaneous addition, n.b. = no blocking; for EC80 on hTAS2R14: agonist concentration used in inhibition tests
T2 construct: first 45 amino acids of rat somatostatin receptor type 3 (sst3 membrane-targeting tag) (N); expressed in transfected cells; host or cells: HEK293 T-Rex Flp-In cells stably expressing Gα16-gust44; induced with doxycycline
T2 sequence (Q9NYV8 1-317): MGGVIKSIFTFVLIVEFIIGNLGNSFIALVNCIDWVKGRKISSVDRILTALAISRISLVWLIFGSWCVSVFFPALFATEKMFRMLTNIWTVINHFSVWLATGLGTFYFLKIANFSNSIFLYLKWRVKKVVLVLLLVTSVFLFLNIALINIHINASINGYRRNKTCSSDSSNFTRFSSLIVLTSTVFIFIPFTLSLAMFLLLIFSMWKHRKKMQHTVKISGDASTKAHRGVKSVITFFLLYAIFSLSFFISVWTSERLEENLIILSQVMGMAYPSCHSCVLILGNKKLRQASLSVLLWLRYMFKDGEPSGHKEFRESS
From the text: For functional expression of the human bitter taste receptor hTAS2R39, HEK293 T-Rex Flp-In cells (Invitrogen, San Diego, CA, USA) were used, stably expressing the chimeric G-protein α-subunit Gα16-gust44 (cloned into pcDNA4 (Invitrogen)) and the human bitter receptor genes for hTAS2R39 (cloned into pcDNA5/FRT (Invitrogen)). The bitter receptor gene contained a DNA sequence encoding the first 45 amino acids of rat somatostatin receptor type 3 at its 5′ end (the receptor expression was achieved according to [18] with exception of the HSV-tag), in order to improve membrane targeting of the receptor protein. The same procedure was applied for stable expression of hTAS2R14. Cells were maintained in Dulbecco's Modified Eagle's Medium (DMEM) and 10% (v/v) tetracycline-free FBS (both Lonza, Verviers, Belgium) supplemented with blasticidin (5 μg/mL), geneticin (400 μg/mL) and hygromycin (100 μg/mL) (all from Invitrogen). Cells were grown and maintained at 37 °C and 5% (v/v) CO2.
Cells were seeded into poly-L-lysine-coated (Sigma-Aldrich) 96-well plates (black wall, clear bottom, Greiner bio-one, Frickenhausen, Germany) at a density of 7*10^3 cells in 100 μL/well and cultured for 24 h. Transcription of the receptors was induced by adding 0.25 μg/mL doxycycline (Sigma-Aldrich). […] One hour after loading, cells were washed with Tyrode's buffer and taken up in Tyrode's buffer. Stock solutions of test compounds were prepared in DMSO and diluted to the appropriate concentration in Tyrode's buffer, not exceeding a DMSO concentration of 1% (v/v).
(§1) Two methods of compound administration were applied: simultaneous and stepwise addition of potential antagonist and agonist. The first 17 s before compound addition were used for baseline determination. For the simultaneous method, agonist and potential antagonist were pre-mixed, administered after 17 s, and fluorescence was measured for in total 90 s. For the stepwise method, after 17 s, the potential antagonist was added, fluorescence was measured until 120 s, and after 120 s the agonist was added and measured for another 120 s, in total 240 s. […] Each experiment was performed at least in duplicate in separate experiments (as indicated for each figure).
Data processing was done as reported previously. In brief, SoftMax Pro 5.4 software (Molecular Devices Corporation) was used to plot the fluorescence signals. The fluorescence value (ΔF/F0), representing receptor activity, was calculated by subtracting the baseline fluorescence (F0) prior to loading from the maximum fluorescence (F) after compound addition, divided by the signal of the baseline in order to normalize background fluorescence. Dose-response curves were established as non-linear regression curves using Graph Pad Prism (version 4 for Windows, Graph Pad Software, San Diego, CA, USA). Half-maximal effective concentrations (EC50) and half-maximal inhibitory concentrations (IC50) were calculated. Error bars reflect the standard error of the mean (SEM). Statistical analysis was performed in Graph Pad Prism (one-way ANOVA at 5% risk level, followed by Bonferroni's post hoc test).
Inhibition was indicated when [drawing 1] . In case of indicated inhibition, flavanones were applied at different concentrations, in order to test for dose-dependent inhibition, at the EC80 concentration of the agonist. […] To investigate the specificity of flavanones for inhibition of hTAS2R39 and hTAS2R14, another bitter taste receptor, hTAS2R16 (not known to be activated by flavonoids), was used in inhibition experiments ( File S3 ) towards its agonist salicin.

[3] = molecular target: T3, hTAS2R16 (Homo sapiens, UniProt Q9NYV7); assay: Calcium assay of hTAS2R16 activation/inhibition (salicin as agonist); format: cell-based
T3 construct: expressed in transfected cells; host or cells: induced versus non-induced cells
T3 sequence (Q9NYV7 1-291): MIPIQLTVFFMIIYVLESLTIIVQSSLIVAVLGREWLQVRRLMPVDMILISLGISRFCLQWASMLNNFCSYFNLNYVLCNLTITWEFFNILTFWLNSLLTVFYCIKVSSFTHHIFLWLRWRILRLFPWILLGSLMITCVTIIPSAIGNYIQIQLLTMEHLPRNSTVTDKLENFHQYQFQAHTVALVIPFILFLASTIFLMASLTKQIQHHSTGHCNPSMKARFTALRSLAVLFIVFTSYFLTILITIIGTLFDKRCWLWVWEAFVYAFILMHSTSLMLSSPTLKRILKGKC
Protocol: Cells were seeded into poly-L-lysine-coated (Sigma-Aldrich) 96-well plates (black wall, clear bottom, Greiner bio-one, Frickenhausen, Germany) at a density of 7*10^3 cells in 100 μL/well and cultured for 24 h. Transcription of the receptors was induced by adding 0.25 μg/mL doxycycline (Sigma-Aldrich). Cells were induced for 24 h and then loaded with the calcium-sensitive fluorescent dye Fluo-4-AM (2.5 μM, Invitrogen), which was dissolved in Tyrode's buffer containing 5% (v/v) tetracycline-free FBS (Lonza). One hour after loading, cells were washed with Tyrode's buffer and taken up in Tyrode's buffer. Stock solutions of test compounds were prepared in DMSO and diluted to the appropriate concentration in Tyrode's buffer, not exceeding a DMSO concentration of 1% (v/v).
as §1, with “Receptor activation or inhibition was measured via intracellular Ca^2+ release in a FlexStation II 384 or FlexStation III (Molecular Devices Corporation, Sunnyvale, CA, USA) by measuring fluorescence (excitation 485 nm/emission 520 nm) for either 90 s or 240 s at 37°C. Two” for “Two”
Screening for hTAS2R39 inhibition by flavanones was performed with simultaneous application of agonist (200 μM ECG) and putative antagonist (250 μM flavanone). Inhibition was indicated when [drawing 1] . In case of indicated inhibition, flavanones were applied at different concentrations, in order to test for dose-dependent inhibition, at the EC80 concentration of the agonist. Another agonist of hTAS2R39, denatonium benzoate, was used in inhibition experiments at 1.7 mM (EC80). hTAS2R14 inhibition was tested with 640 μM ECG or 70 μM genistein as agonists, representing their respective EC80 concentrations. To investigate the specificity of flavanones for inhibition of hTAS2R39 and hTAS2R14, another bitter taste receptor, hTAS2R16 (not known to be activated by flavonoids), was used in inhibition experiments ( File S3 ) towards its agonist salicin.
SUPPORTING INFORMATION to the article “6-Methoxyflavanones as Bitter Taste Receptor Blockers for hTAS2R39” by Roland, WSU; Gouka, RJ; Gruppen, H; Driesse, M; van Buren, L; Smit, G; Vincken, J-P File S3 Investigation of identified inhibitors on hTAS2R16.
To investigate whether the hTAS2R39 inhibitors 6,3’-dimethoxyflavanone (3), 4’- fluoro-6-methoxyflavanone (6), and 6-methoxyflavanone (11) were able to inhibit a bitter receptor not known for flavonoid activation, hTAS2R16 was selected for inhibition experiments. Measuring dose-response curves of the hTAS2R16 agonist […]
Figure S3. Inhibition of response of 10 mM salicin (---) on hTAS2R16 (induced (●), non-induced (○)) by 4’-fluoro-6-methoxyflavanone (6) after simultaneous addition (A) and stepwise addition (B), by 6,3’-dimethoxyflavanone (3) after simultaneous addition (C) and stepwise addition (D), and by 6-methoxyflavanone (11) after simultaneous addition (E) and stepwise addition (F). […]

[4] = molecular target: T1, hTAS2R39; parameters: method as in PMID 24117141; conditions: cited from earlier work
[5] = system: bitter taste; parameters: method as in PMID 16028996; conditions: in-vivo sensory masking, unknown mechanism; cited from earlier work
[6] = inhibition of hTAS2R14 response to 70 μM genistein
[7] = inhibition of hTAS2R14 response to 640 μM ECG
[8] = 0 μM 4′-fluoro-6-methoxyflavanone (6), stepwise addition, read-out: EC50 of agonist on hTAS2R39

- inhibition of hTAS2R39 activation ([1]; data not shown): unable to inhibit hTAS2R39 activation
SMILES: COc1ccc2oc(-c3ccccc3)cc(=O)c2c1 [6-methoxyflavone, reference compound]

- IC50, Simultaneous [2, 6]: n.b.
- Threshold, Simultaneous [2, 6]: n.b.
- inhibition of salicin response on hTAS2R16 ([3]; 10 mM salicin, simultaneous and stepwise addition): no inhibition
SMILES: COc1cccc(C2CC(=O)c3cc(OC)ccc3O2)c1 (stereo not drawn) [Compound 3, 6,3′-Dimethoxyflavanone]
- IC50, Simultaneous [2, 7]: n.b.
- Threshold, Simultaneous [2, 7]: n.b.
- IC50 ([2]; inhibition of hTAS2R14 response to 640 μM ECG, stepwise addition): ~250 µM

SMILES: O=C1C[C@@H](c2ccc(O)c(O)c2)Oc2cc(O)cc(O)c21 [Compound 4, Eriodictyol]
- activation of hTAS2R39 in a previous study [4]: a activated hTAS2R39 in a previous study [16], but was selected for testing as antagonist due to ability to reduce bitter taste perception in sensory tests [9].
- reduction of the bitter taste of different chemical classes of bitter molecules [5]: up to 40%

SMILES: O=C1CC(c2ccccc2)Oc2ccccc21 (stereo not drawn) [Compound 5, Flavanone]
- activation of hTAS2R39 in a previous study [4]: b no activation of hTAS2R39 in a previous study [16].
- reduction of ECG response on hTAS2R39 (screening for inhibition) [1]: did not show inhibitory activity

SMILES: O=C1CC(c2ccccc2)Oc2ccc(O)cc21 (stereo not drawn) [Compound 8, 6-Hydroxyflavanone]
- reduction of ECG response on hTAS2R39 (screening for inhibition) [1]: did not show inhibitory activity

SMILES: O=C1CC(c2ccc(O)cc2)Oc2ccccc21 (stereo not drawn) [Compound 10, 4′-Hydroxyflavanone]
- activation of hTAS2R39 in a previous study [4]: b no activation of hTAS2R39 in a previous study [16].

SMILES: COc1ccc2c(c1)OC(c1ccccc1)CC2=O (stereo not drawn) [Compound 12, 7-Methoxyflavanone]
- reduction of ECG response on hTAS2R39 (screening for inhibition) [1]: did not show inhibitory activity

SMILES: COc1ccc(C2CC(=O)c3ccccc3O2)cc1 (stereo not drawn) [Compound 13, 4′-Methoxyflavanone]
- reduction of ECG response on hTAS2R39 (screening for inhibition) [1]: did not show inhibitory activity

- EC50 [1, 8]: 659 ± 334 µM
- EC80 on hTAS2R39 [1]: 1700 µM
- EC50 ([1]; agonist dose-response curve (data not shown), read-out: EC50 on hTAS2R39): 711 µM
SMILES: CC[N+](CC)(CC(=O)Nc1c(C)cccc1C)Cc1ccccc1 [Denatonium benzoate, denatonium benzoate, reference compound]

- EC80 on hTAS2R14 [2]: 640 µM
- EC50 [1, 8]: 128 ± 82 µM
- EC80 on hTAS2R39 [1]: 200 µM
SMILES: O=C(O[C@@H]1Cc2c(O)cc(O)cc2O[C@@H]1c1ccc(O)c(O)c1)c1cc(O)c(O)c(O)c1 [ECG, Epicatechin gallate, reference compound]

- EC80 on hTAS2R14 [2]: 70 µM
SMILES: O=c1c(-c2ccc(O)cc2)coc2cc(O)cc(O)c12 [genistein, reference compound]

SMILES: COc1cc([C@@H]2CC(=O)c3c(O)cc([O-])cc3O2)ccc1O.[Na+] [homoeriodictyol Na-salt, reference compound]
- reduction of the bitter taste of different chemical classes of bitter molecules [5]: up to 40%

- EC80 on hTAS2R16 ([3]; agonist dose-response curve): 10000 µM
SMILES: OCc1ccccc1O[C@@H]1O[C@H](CO)[C@@H](O)[C@H](O)[C@H]1O [salicin, reference compound]
